From article PMC11358092, “Caspofungin enhances the potency of rifampin against Gram-negative bacteria” (Frontiers in Microbiology, 2024)
Where a name gives a salt, the structure may show the parent alone.

System: E. coli MG1655
Test: High-throughput screening of FDA-approved drug library for antibiotic adjuvants (growth inhibition, OD600)
Assay type: cell-based, Escherichia coli
Settings: library drug alone, LB medium, 96-well, 8 h static culture at 37°C, relative to PMBN (positive) and DMSO (negative) controls, %, table head prints no unit

Going from `CCCN1C[C@H](C)[C@@H](O)[C@](C)(O)[C@@H](CC)OC(=O)[C@H](C)[C@@H](O[C@H]2C[C@@](C)(OC)[C@@H](O)[C@H](C)O2)[C@H](C)[C@@H](O[C@@H]2O[C@H](C)C[C@H](N(C)C)[C@H]2O)[C@](C)(O)C[C@H]1C` [Gamithromycin] to `CC[C@H]1OC(=O)[C@H](C)[C@@H](O[C@H]2C[C@@](C)(OC)[C@@H](O)[C@H](C)O2)[C@H](C)[C@@H](O[C@@H]2O[C@H](C)C[C@H](N(C)C)[C@H]2O)[C@](C)(O)C[C@@H](C)CN(C)[C@H](C)[C@@H](O)[C@]1(C)O` [Azithromycin], the “Growth inhibition, Compound” value rises from 96% to 109%.

Going from `CN[C@@H]1[C@@H](O)[C@@H](O[C@@H]2[C@@H](O)[C@H](O[C@H]3OC(CN)=CC[C@H]3N)[C@@H](N)C[C@H]2N)OC[C@]1(C)O` [Sisomicin Sulfate] to `NCC[C@H](O)C(=O)N[C@@H]1C[C@H](N)[C@@H](O[C@H]2O[C@H](CN)[C@@H](O)[C@H](O)[C@H]2O)[C@H](O)[C@H]1O[C@H]1O[C@H](CO)[C@@H](O)[C@H](N)[C@H]1O.O=S(=O)(O)O.O=S(=O)(O)O` [Amikacin Sulfate Salt], the “Growth inhibition, Compound” value rises from 105% to 107%.

First: O=C(O)c1cn(-c2ccc(F)cc2)c2cc(N3CCNCC3)c(F)cc2c1=O [Sarafloxacin]
Second: CCN1CCN(c2cc3c(cc2F)c(=O)c(C(=O)O)cn3C2CC2)CC1 [Enrofloxacin]
The “Growth inhibition, Compound” value of the first is higher: 109% for the first, 95% for the second.

First: CO/N=C(\C(=O)N[C@@H]1C(=O)N2C(C(=O)O)=C(COC(N)=O)CS[C@H]12)c1ccco1 [Cefuroxime sodium]
Second: CO/N=C(\C(=O)N[C@@H]1C(=O)N2C(C(=O)O)=C(CSC(=O)c3ccco3)CS[C@H]12)c1csc(N)n1 [Sodium ceftiofur]
The “Growth inhibition, Compound” value of the first is lower: 95% for the first, 109% for the second.

Going from `C[C@@H](O)[C@H]1C(=O)N2C(C(=O)O)=C(S[C@@H]3CN[C@H](CNS(N)(=O)=O)C3)[C@H](C)[C@H]12.O` [Doripenem Hydrate] to `C[C@@H](O)[C@H]1C(=O)N2C(C(=O)O)=C(SC3CN(C4=NCCS4)C3)[C@H](C)[C@H]12` [Tebipenem], the “Growth inhibition, Compound” value rises from 77% to 109%.

Compared with `CC1(C)S[C@@H]2[C@H](NC(=O)[C@H](C(=O)O)c3ccsc3)C(=O)N2[C@H]1C(=O)O` [Ticarcillin disodium], `CC(=O)OCC1=C(C(=O)O)N2C(=O)[C@@H](NC(=O)Cc3cccs3)[C@H]2SC1` [Cephalothin sodium] is lower in “Growth inhibition, Compound” value: 86% for the first, 79% for the second.

Compared with `COc1c(N2C[C@@H]3CCCN[C@@H]3C2)c(F)cc2c(=O)c(C(=O)O)cn(C3CC3)c12` [Moxifloxacin hydrochloride], `COc1c(N2CCNC(C)C2)c(F)cc2c(=O)c(C(=O)O)cn(C3CC3)c12.Cl` (centres unmarked) [Gatifloxacin hydrochloride] is lower in “Growth inhibition, Compound” value: 111% for the first, 104% for the second.

Going from `CO/N=C(\C(=O)N[C@@H]1C(=O)N2C(C(=O)O)=C(COC(C)=O)CS[C@H]12)c1csc(N)n1` [Cefotaxime sodium] to `CO/N=C(\C(=O)N[C@@H]1C(=O)N2C(C(=O)O)=C(C[n+]3cccc4c3CCC4)CS[C@H]12)c1csc(N)n1.O=S(=O)([O-])O` [Cefpirome sulfate], the “Growth inhibition, Compound” value falls from 99% to 93%.

Compared with `CC(C)(C)C(=O)OCOC(=O)[C@@H]1N2C(=O)[C@@H](/N=C/N3CCCCCC3)[C@H]2SC1(C)C` [Pivmecillinam hydrochloride], `CC1(C)S[C@@H]2[C@H](NC(=O)[C@H](C(=O)O)c3ccsc3)C(=O)N2[C@H]1C(=O)O` [Ticarcillin sodium] is higher in “Growth inhibition, Compound” value: 72% for the first, 86% for the second.

First: CS(=O)(=O)O.C[C@H]1COc2c(C3(N)CC3)c(F)cc3c(=O)c(C(=O)O)cn1c23 [Pazufloxacin Mesylate]
Second: CC1CCc2c(N3CCC(O)CC3)c(F)cc3c(=O)c(C(=O)O)cn1c23 (centres unmarked) [Nadifloxacin]
The “Growth inhibition, Compound” value of the first is lower: 109% for the first, 110% for the second.

Going from `Nc1ncn([C@@H]2O[C@H](CO)[C@@H](O)[C@H]2O)c(=O)n1` [5-Azacytidine] to `[H]/N=C(/N)N[C@H]1[C@H](O)[C@@H](O)[C@H](O[C@@H]2O[C@@H](C)[C@](O)(C=O)[C@H]2O[C@@H]2O[C@@H](CO)[C@H](O)[C@@H](O)[C@@H]2NC)[C@@H](N/C(N)=N\[H])[C@@H]1O` [Streptomycin sulfate], the “Growth inhibition, Compound” value rises from 43% to 109%.

Compared with `CO/N=C(\C(=O)N[C@@H]1C(=O)N2C(C(=O)[O-])=C(C[n+]3ccc(N)n3CCO)CS[C@H]12)c1csc(N)n1.O=S(=O)(O)O` [Cefoselis Sulfate], `CC(C)(O/N=C(\C(=O)N[C@@H]1C(=O)N2C(C(=O)[O-])=C(C[n+]3ccccc3)CS[C@H]12)c1csc(N)n1)C(=O)O` [Ceftazidime] is lower in “Growth inhibition, Compound” value: 107% for the first, 53% for the second.

Compared with `Cc1cc(O)c(C(=O)N[C@@H](C(=O)N[C@@H]2C(=O)N3C(C(=O)O)=C(CSc4nnnn4C)CS[C@H]23)c2ccc(O)cc2)cn1` [Cefpiramide acid], `CCN1CCN(C(=O)N[C@@H](C(=O)N[C@@H]2C(=O)N3C(C(=O)O)=C(CSc4nnnn4C)CS[C@H]23)c2ccc(O)cc2)C(=O)C1=O` [Cefoperazone] is higher in “Growth inhibition, Compound” value: 97% for the first, 100% for the second.

Going from `CNC1CCCN(c2c(F)cc3c(=O)c(C(=O)O)cn(C4CC4)c3c2OC)C1` (centres unmarked) [Balofloxacin] to `Cl.N[C@@H]1CCCCN(c2c(F)cc3c(=O)c(C(=O)O)cn(C4CC4)c3c2Cl)C1` [Besifloxacin HCl], the “Growth inhibition, Compound” value falls from 108% to 107%.

First: CCn1cc(C(=O)O)c(=O)c2cnc(N3CCNCC3)nc21 [Pipemidic acid]
Second: CCn1cc(C(=O)O)c(=O)c2ccc(C)nc21 [Nalidixic acid]
The “Growth inhibition, Compound” value of the first is higher: 105% for the first, 74% for the second.

First: C[C@H]1c2cccc(O)c2C(=O)C2=C(O)[C@]3(O)C(=O)C(C(N)=O)=C(O)[C@@H](N(C)C)[C@@H]3[C@@H](O)[C@@H]21 [Doxycycline hydrochloride]
Second: CN(C)[C@@H]1C(O)=C(C(N)=O)C(=O)[C@@]2(O)C(O)=C3C(=O)c4c(O)ccc(Cl)c4[C@@H](O)[C@H]3C[C@@H]12 [Demeclocycline hydrochloride]
The “Growth inhibition, Compound” value of the first is higher: 114% for the first, 99% for the second.

Going from `CCn1cc(C(=O)O)c(=O)c2cc3c(cc21)OCO3` [Oxolinic acid] to `CN1CCN(c2c(F)cc3c(=O)c(C(=O)O)cn(CCF)c3c2F)CC1` [Fleroxacin], the “Growth inhibition, Compound” value rises from 108% to 109%.

Going from `CC(=O)Oc1ccccc1C(=O)Nc1ncc([N+](=O)[O-])s1` [Nitazoxanide] to `O=[N+]([O-])c1ccc(O)c2ncccc12` [Nitroxoline], the “Growth inhibition, Compound” value rises from 36% to 105%.

Compared with `O=C1CN(/N=C/c2ccc([N+](=O)[O-])o2)C(=O)N1` [Nitrofurantoin], `N[C@@H](C(=O)N[C@@H]1C(=O)N2C(C(=O)O)=C(Cl)CS[C@H]12)c1ccccc1` [Cefaclor monohydrate] is lower in “Growth inhibition, Compound” value: 98% for the first, 80% for the second.

First: Oc1cc(Cl)ccc1Oc1ccc(Cl)cc1Cl [Triclosan]
Second: Oc1ccc(Cl)c2cccnc12 [Dermofongin]
The “Growth inhibition, Compound” value of the first is lower: 79% for the first, 85% for the second.

First: O=C(N[C@H](CO)[C@H](O)c1ccc([N+](=O)[O-])cc1)C(Cl)Cl [Chloramphenicol]
Second: CC1NCc2cc(-c3ccc4c(=O)c(C(=O)O)cn(C5CC5)c4c3OC(F)F)ccc21.CS(=O)(=O)O.O (centres unmarked) [Garenoxacin mesylate hydrate]
The “Growth inhibition, Compound” value of the first is higher: 109% for the first, 106% for the second.

Going from `Cc1c(N)nc([C@H](CC(N)=O)NC[C@H](N)C(N)=O)nc1C(=O)N[C@H](C(=O)N[C@H](C)[C@@H](O)[C@H](C)C(=O)N[C@H](C(=O)NCCc1nc(-c2nc(C(=O)NCCC[S+](C)C)cs2)cs1)[C@@H](C)O)[C@@H](O[C@@H]1O[C@@H](CO)[C@@H](O)[C@H](O)[C@@H]1O[C@H]1O[C@H](CO)[C@@H](O)[C@H](OC(N)=O)[C@@H]1O)c1cnc[nH]1.O=S(=O)([O-])O` [Bleomycin Sulfate] to `CN[C@@H]1[C@H](O[C@H]2[C@H](O[C@H]3[C@H](O)[C@@H](O)[C@H](NC(=N)N)[C@@H](O)[C@@H]3NC(=N)N)O[C@@H](C)[C@]2(O)CO)O[C@@H](CO)[C@H](O)[C@H]1O` [Dihydrostreptomycin sulfate], the “Growth inhibition, Compound” value falls from 110% to 106%.

Compared with `Oc1c(I)cc(I)c2cccnc12` [Iodoquinol], `Nc1ccc2cc3ccc(N)cc3nc2c1` [Proflavine Hemisulfate] is lower in “Growth inhibition, Compound” value: 70% for the first, 54% for the second.

Going from `CO/N=C1\C[C@]2(C[C@@H]3C[C@@H](C/C=C(\C)C[C@@H](C)/C=C/C=C4\CO[C@@H]5[C@H](O)C(C)=C[C@@H](C(=O)O3)[C@]45O)O2)O[C@H](/C(C)=C/C(C)C)[C@H]1C` [Moxidectin] to `C=C[C@]1(C)C[C@@H](OC(=O)CS[C@@H]2CC[C@@H](N)C[C@H]2O)C2(C)[C@H](C)CCC3(CCC(=O)[C@H]32)[C@@H](C)[C@@H]1O.CC(=O)O` (some centres unmarked) [Lefamulin acetate], the “Growth inhibition, Compound” value rises from 32% to 98%.

Going from `Cc1nnc(SCC2=C(C(=O)O)N3C(=O)[C@@H](NC(=O)Cn4cnnn4)[C@H]3SC2)s1` [Cefazolin sodium salt] to `CCO/N=C(\C(=O)N[C@@H]1C(=O)N2C(C(=O)[O-])=C(Sc3nc(-c4cc[n+](C)cc4)cs3)CS[C@H]12)c1nsc(NP(=O)(O)O)n1` [Ceftaroline fosamil], the “Growth inhibition, Compound” value rises from 90% to 93%.

Compared with `CCN(CC)C(=S)SSC(=S)N(CC)CC` [Disulfiram], `C[C@@H]1CN(c2c(F)c(N)c3c(=O)c(C(=O)O)cn(C4CC4)c3c2F)C[C@H](C)N1` [Sparfloxacin] is higher in “Growth inhibition, Compound” value: 78% for the first, 96% for the second.

Going from `Cc1oc(=O)oc1COC(=O)N1CC[C@@H](N2CC/C(=C\C3=C(C(=O)O)N4C(=O)[C@@H](NC(=O)/C(=N/O)c5nsc(N)n5)[C@H]4SC3)C2=O)C1` [Ceftobiprole medocaril] to `O=[N+]([O-])C(Br)(CO)CO` [Bronopol], the “Growth inhibition, Compound” value falls from 106% to 100%.

System: E. coli MG1655
Test: as above
Assay type: cell-based, Escherichia coli
Settings: not given

For `O=C(O)c1cn(C2CC2)c2cc(N3CCNCC3)c(F)cc2c1=O` [Ciprofloxacin hydrochloride hydrate], the “Growth inhibition, Compound” value was 101%.
`O=C(O)c1cn(C2CC2)c2cc(N3CCNCC3)c(F)cc2c1=O` [Ciprofloxacin hydrochloride] was tested, and the “Growth inhibition, Compound” value was 98%.
